Laboratory results from US20230241243A1, “CARRIER PARTICLE-DRUG CONJUGATES, SELF-IMMOLATIVE LINKERS, AND USES THEREOF” (priority 2020, published 2023).
Where a name gives a salt, the structure may show the parent alone.

System: Human KB cells
Assay: Cell viability assay of payloads (CellTiter-Glo 2.0)
Assay type: cell-based
Details: 168 h; Human KB cells, 7 days treatment, 0-1,000 nM; read-out: IC50 values (diluted in RPMI medium)
Description: Method: Human KB cells (ATCC® CCL-17™) were cultured in folic acid free rpmi-1640 medium (ThermoFisher, GIBCO) for at least 7 days before the study. The cells were seeded in opaque 96-well plates and allowed to attach overnight (cell density was carefully controlled to be 3,000 cells per well at the time of assay). After that, cells were treated with drug analogs (suspended in the same RPMI-1640 medium) at a concentration of zero to 1,000 nM. After 7 days, cell viability was assessed using the CellTiter-Glo® 2.0 assay (Promega) according to the manufacturer's instructions. The percent of viable cells at each concentration was calculated by normalizing the luminescence values to the untreated control. The half-maximal inhibitory concentration (IC50) of the payloads were plotted and fitted by using the Prism 8 software (GraphPad). Table 2 provides the IC50 of the payloads of the present disclosure (‘+’ indicates 1-9.9 nm; ‘++’ indicates 10-100 nm).

Row | SMILES | IC50 [nM]
1 | CCc1c2c(nc3ccc(Oc4nc(Cl)nc(NCCSSCCN)n4)cc13)-c1cc3c(c(=O)n1C2)COC(=O)[C@]3(O)CC [Example 463, (S)-9-((4-((2-((2-aminoethyl)disulfaneyl)ethyl)amino)-6-chloro-1,3,5-triazin-2-yl)oxy)-4,11-diethyl-4-hydroxy-1,12-dihydro-14H-pyrano[3′,4′:6,7]indolizino[1,2-b]quinoline-3,14(4H)-dione] | 10 to 100

Same assay, conditions: Homo sapiens, KB, 168 h, read-out: IC50 values (diluted in RPMI medium)

Row | SMILES | IC50 [nM]
2 | CC[C@@]1(O)C(=O)OCc2c1cc1n(c2=O)Cc2c-1nc1cc(F)c(C)c3c1c2[C@@H](NC(=O)CSSC(C)(C)CN)CC3 [Example 454, 2-((1-amino-2-methylpropan-2-yl)disulfaneyl)-N-((1S,9S)-9-ethyl-5-fluoro-9-hydroxy-4-methyl-10,13-dioxo-2,3,9,10,13,15-hexahydro-1H,12H-benzo[de]pyrano[3′,4′:6,7]indolizino[1,2-b]quinolin-1-yl)acetamide 2,2,2-trifluoroacetic acid salt] | 10 to 100
3 | CCc1c2c(nc3ccc(OCCCN)cc13)-c1cc3c(c(=O)n1C2)COC(=O)[C@]3(O)CC [Example 105] | 1 to 9.9
4 | CC[C@@]1(O)C(=O)OCc2c1cc1n(c2=O)Cc2c-1nc1cc(F)c(C)c3c1c2[C@@H](NC(=O)CS)CC3 [Example 452, N-((1S,9S)-9-ethyl-5-fluoro-9-hydroxy-4-methyl-10,13-dioxo-2,3,9,10,13,15-hexahydro-1H,12H-benzo[de]pyrano[3′,4′:6,7]indolizino[1,2-b]quinolin-1-yl)-2-mercaptoacetamide] | 10 to 100
5 | CCc1c2c(nc3ccc(OCC(=O)NN)cc13)-c1cc3c(c(=O)n1C2)COC(=O)[C@]3(O)CC [Example 385, (S)-2-((4,11-diethyl-4-hydroxy-3,14-dioxo-3,4,12,14-tetrahydro-1H-pyrano[3′,4′:6,7]indolizino[1,2-b]quinolin-9-yl)oxy)acetohydrazide] | 10 to 100
6 | CC[C@@]1(O)C(=O)OCc2c1cc1n(c2=O)Cc2c-1nc1cc(F)c(C)c3c1c2[C@@H](Nc1nc(Cl)nc(NCCSSC(C)(C)CN)n1)CC3 [Example 377, (1S,9S)-1-((4-((2-((1-amino-2-methylpropan-2-yl)disulfaneyl)ethyl)amino)-6-chloro-1,3,5-triazin-2-yl)amino)-9-ethyl-5-fluoro-9-hydroxy-4-methyl-1,2,3,9,12,15-hexahydro-10H,13H-benzo[de]pyrano[3′,4′:6,7]indolizino[1,2-b]quinoline-10,13-dione 2,2,2-trifluoroacetate] | 10 to 100
7 | CC[C@@]1(O)C(=O)OCc2c1cc1n(c2=O)Cc2c-1nc1cc(F)c(C)c3c1c2[C@@H](NC(=O)C(O)c1ccc(N)cc1)CC3 (stereo partly drawn) [Example 458, 2-(4-aminophenyl)-N-((1S,9S)-9-ethyl-5-fluoro-9-hydroxy-4-methyl-10,13-dioxo-2,3,9,10,13,15-hexahydro-1H,12H-benzo[de]pyrano[3′,4′:6,7]indolizino[1,2-b]quinolin-1-yl)-2-hydroxyacetamide] | 1 to 9.9
8 | CCc1c2c(nc3ccc(OC(C)(C)C(=O)NN)cc13)-c1cc3c(c(=O)n1C2)COC(=O)[C@]3(O)CC [Example 422, (S)-2-((4,11-diethyl-4-hydroxy-3,14-dioxo-3,4,12,14-tetrahydro-1H-pyrano[3′,4′:6,7]indolizino[1,2-b]quinolin-9-yl)oxy)-2-methylpropanehydrazide] | 10 to 100
9 | CCc1c2c(nc3ccc(OCCCSSC(C)(C)CN)cc13)-c1cc3c(c(=O)n1C2)COC(=O)[C@]3(O)CC [Example 331] | 10 to 100
10 | CC[C@]1(O)C(=O)OCc2c1cc1n(c2=O)Cc2c-1nc1cc(F)c(C)c3c1c2[C@H](NC(=O)C(C)(C)C(=O)NN)CC3 [Example 410, N-((1R,9R)-9-ethyl-5-fluoro-9-hydroxy-4-methyl-10,13-dioxo-2,3,9,10,13,15-hexahydro-1H,12H-benzo[de]pyrano[3′,4′:6,7]indolizino[1,2-b]quinolin-1-yl)-3-hydrazineyl-2,2-dimethyl-3-oxopropanamide] | 10 to 100
11 | CCc1c2c(nc3ccc(OCCCSC(C)=O)cc13)-c1cc3c(c(=O)n1C2)COC(=O)[C@]3(O)CC [Example 327] | 10 to 100

System: not listed separately
Assay: Drug-release assay of nanoparticle-conjugated linker-payloads under cleavage conditions (Cat-B, redox-responsive or pH-sensitive cleaving study), RP-HPLC
Assay type: in vitro ADME
Details: linker-payload conjugated to DBCO-functionalized silica nanoparticle, 37° C., 24 hours
Procedure, shortened: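 Azide linker-drugs were click-conjugated to DBCO-functionalized ultrasmall silica nanoparticles and incubated under cleavage conditions, e.g., Cat-B in 25 mM MES, 5 mM DTT, pH 5.0. Released versus non-released drug was quantified by C18 RP-HPLC peak area. Gradients were 0.01% TFA water/acetonitrile for protease/redox linkers and water/acetonitrile for pH-sensitive linkers.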

Row | SMILES | % of Payload Release in 24 Hours Under Cleavage Conditions
12 | CCc1c2c(nc3ccc(OCCCNC(=O)OCc4ccc(NC(=O)[C@H](CCCNC(N)=O)NC(=O)[C@@H](NC(=O)CCOCCOCCOCCOCCOCCN=[N+]=[N-])C(C)C)cc4)cc13)-c1cc3c(c(=O)n1C2)COC(=O)[C@]3(O)CC [Example 15, 4-((20S,23S)-1-azido-20-isopropyl-18,21-dioxo-23-(3-ureidopropyl)-3,6,9,12,15-pentaoxa-19,22-diazatetracosan-24-amido)benzyl (3-(((S)-4,11-diethyl-4-hydroxy-3,14-dioxo-3,4,12,14-tetrahydro-1H-pyrano[3′,4′:6,7]indolizino[1,2-b]quinolin-9-yl)oxy)propyl)carbamate] | ++ (‘++’ indicates 26-50% release)
13 | CC[C@@]1(O)C(=O)OCc2c1cc1n(c2=O)Cc2c-1nc1cc(F)c(C)c3c1c2[C@@H](NC(=O)[C@@H](CCCNC(N)=O)NC(=O)[C@@H](NC(=O)CCOCCOCCOCCOCCOCCOCCOCCOCCOCCOCCOCCN=[N+]=[N-])C(C)C)CC3 [Example 50, 1-azido-N-((S)-1-(((R)-1-(((1S,9S)-9-ethyl-5-fluoro-9-hydroxy-4-methyl-10,13-dioxo-2,3,9,10,13,15-hexahydro-1H,12H-benzo[de]pyrano[3′,4′:6,7]indolizino[1,2-b]quinolin-1-yl)amino)-1-oxo-5-ureidopentan-2-yl)amino)-3-methyl-1-oxobutan-2-yl)-3,6,9,12,15,18,21,24,27,30,33-undecaoxahexatriacontan-36-amide] | + (‘+’ indicates 5-25% release)
14 | CCc1c2c(nc3ccc(OCCCNC(=O)OCc4ccc(NC(=O)[C@H](CCCCN)NC(=O)[C@H](Cc5c[nH]c6ccccc56)NC(=O)CCOCCOCCOCCOCCOCCOCCOCCOCCOCCN=[N+]=[N-])cc4)cc13)-c1cc3c(c(=O)n1C2)COC(=O)[C@]3(O)CC [Example 32, 4-((32S,35S)-32-((1H-indol-3-yl)methyl)-35-(4-aminobutyl)-1-azido-30,33-dioxo-3,6,9,12,15,18,21,24,27-nonaoxa-31,34-diazahexatriacontan-36-amido)benzyl (3-(((S)-4,11-diethyl-4-hydroxy-3,14-dioxo-3,4,12,14-tetrahydro-1H-pyrano[3′,4′:6,7]indolizino[1,2-b]quinolin-9-yl)oxy)propyl)carbamate] | + (‘+’ indicates 5-25% release)
15 | CCc1c2c(nc3ccc(OCCCNC(=O)OCc4ccc(NC(=O)[C@H](CCCNC(N)=O)NC(=O)[C@@H](NC(=O)CCOCCOCCOCCOCCOCCOCCOCCOCCOCCOCCOCCN=[N+]=[N-])C(C)C)cc4)cc13)-c1cc3c(c(=O)n1C2)COC(=O)[C@]3(O)CC [Example 17, 4-((38S,41S)-1-azido-38-isopropyl-36,39-dioxo-41-(3-ureidopropyl)-3,6,9,12,15,18,21,24,27,30,33-undecaoxa-37,40-diazadotetracontan-42-amido)benzyl (3-(((S)-4,11-diethyl-4-hydroxy-3,14-dioxo-3,4,12,14-tetrahydro-1H-pyrano[3′,4′:6,7]indolizino[1,2-b]quinolin-9-yl)oxy)propyl)carbamate] | ++ (‘++’ indicates 26-50% release)
16 | CCc1c2c(nc3ccc(OCCCSSC(C)(C)CNC(=O)CCOCCOCCOCCOCCOCCN=[N+]=[N-])cc13)-c1cc3c(c(=O)n1C2)COC(=O)[C@]3(O)CC [Example 54, (S)-1-azido-N-(2-((3-((4,11-diethyl-4-hydroxy-3,14-dioxo-3,4,12,14-tetrahydro-1H-pyrano[3′,4′:6,7]indolizino[1,2-b]quinolin-9-yl)oxy)propyl)disulfanyl)-2-methylpropyl)-3,6,9,12,15-pentaoxaoctadecan-18-amide] | + (‘+’ indicates 5-25% release)
17 | CCc1c2c(nc3ccc(OCc4c(F)cc(NC(=O)[C@H](CCCNC(N)=O)NC(=O)[C@@H](NC(=O)CCOCCOCCOCCOCCOCCOCCOCCOCCOCCOCCOCCN=[N+]=[N-])C(C)C)cc4F)cc13)-c1cc3c(c(=O)n1C2)COC(=O)[C@]3(O)CC [Example 22, 1-azido-N-((S)-1-(((S)-1-((4-((((S)-4,11-diethyl-4-hydroxy-3,14-dioxo-3,4,12,14-tetrahydro-1H-pyrano[3′,4′:6,7]indolizino[1,2-b]quinolin-9-yl)oxy)methyl)-3,5-difluorophenyl)amino)-1-oxo-5-ureidopentan-2-yl)amino)-3-methyl-1-oxobutan-2-yl)-3,6,9,12,15,18,21,24,27,30,33-undecaoxahexatriacontan-36-amide] | + (‘+’ indicates 5-25% release)

Same assay, conditions: linker-payload conjugated to nanoparticle, 37° C., @ 3 Hrs

Row | SMILES | % of Payload Release Under Cleavage Conditions
18 | CCc1c2c(nc3ccc(OCC(=O)N/N=C(/C)c4ccc(OCCOCCOCCOCCOCCOCCN=[N+]=[N-])cc4)cc13)-c1cc3c(c(=O)n1C2)COC(=O)[C@]3(O)CC [Example 64, (S,Z)-N′-(1-(4-((17-azido-3,6,9,12,15-pentaoxaheptadecyl)oxy)phenyl)ethylidene)-2-((4,11-diethyl-4-hydroxy-3,14-dioxo-3,4,12,14-tetrahydro-1H-pyrano[3′,4′:6,7]indolizino[1,2-b]quinolin-9-yl)oxy)acetohydrazide] | +++ @ 3 Hrs (‘+++’ indicates 51-75% release)
